# Measured values published in patent publication US12527782B2, “Use of hexokinase 2/mitochondria-detaching compounds for treating hexokinase-2 (HK2)-expressing cancers” (Vidac Pharma Ltd., priority 2016, dated 2026).
# Assays:
# Pancreas PAXF 736 = experiment: CFA, PAXF 736; format: cell-based, human; details: PDX/CFA
# Protocol: (§1) CFA was performed by Charles River Laboratories (Freiburg, Germany) in 96-well plate format according to a modified two-layer soft agar assay. The origin of the tumor xenografts has been described (Fiebig et al. 1989, incorporated herein by reference). The list of tumors used in this study is detailed in Table 1.
# Lung (SCLC) LXFS NCI-H82 = experiment: CFA, LXFS NCI-H82; format: cell-based, human; details: Cell line/CFA
# Protocol: as §1
# [1] = test system: Leukemia (BCLL) LEXFCM K-562; experiment: CFA, LEXFCM K-562; format: cell-based, human; details: Cell line/CFA
# Protocol: as §1
# [2] = test system: Lung (NSCLC, large) LXFL 430; experiment: CFA, LXFL 430; format: cell-based, human; details: PDX/CFA
# Protocol: as §1
# [3] = test system: Lung (SCLC) LXFS NCI-H727; experiment: CFA, LXFS NCI-H727; format: cell-based, human; details: Cell line/CFA
# Protocol: as §1
# [4] = test system: Lung (NSCLC, adeno) LXFA 749; experiment: CFA, LXFA 749; format: cell-based, human; details: PDX/CFA
# Protocol: as §1
# [5] = test system: Leukemia (ALL) LEXFAL MOLT-4; experiment: CFA, LEXFAL MOLT-4; format: cell-based, human; details: Cell line/CFA
# Protocol: as §1
# [6] = test system: Lung (NSCLC, epidermoid) LXFE 937; experiment: CFA, LXFE 937; format: cell-based, human; details: PDX/CFA
# Protocol: as §1
# [7] = test system: HaCaT normal immortal keratonocytes; experiment: XTT cell viability assay, HaCaT; format: cell-based, human; details: Cell line/XTT, 72 hr
# Protocol: A431 (human skin SCC), HT-297.T (human AK), and HaCaT transformed normal keratinocyte cell lines were from ATCC (Manassas, VA) and were maintained in DMEM supplemented with 10% FCS, 4 mM L-Gln, 1 mM sodium pyruvate, 100 U/mL penicillin, 1 μg/mL streptomycin. Human HK1 and HK2 plasmids were purchased from Addgene (Cambridge, MA) and were purified from E. Coli. VDAC1 was purified from sheep liver mitochondria as described (Arbel et al. 2012, incorporated herein by reference). Human skin tissue microarray (SK208 and SK 805) were purchased from US Biomax Inc. (Rockville, MD).
# For XTT assays, cells were plated in 96-well plates (5,000 cells per well) for 24 hours. Cells were then incubated with different concentrations of Formula C in triplicates for 72 hr in DMEM supplemented with 0.5% FCS and 5 mM Glucose. Cell viability was evaluated using 2,3-bis-(2-methoxy-4-nitro-5-sulfophenyl)-2H-tetrazolium-5-carboxanilide (XTT)-based colorimetric assay kit (Biological Industries Ltd., Kibbutz Beit-Haemek, Israel). The optical density was measured by an Infinite 200 ELISA reader at 450 nm and reference was measured at 630 nm (Tecan, Männedorf, Switzerland).
# [8] = Phase 1a single topical application, pharmacokinetics; format: in vivo, human; details: healthy volunteers
# Protocol: (§2) The Phase 1a clinical trial was a randomized, double-blinded, placebo-controlled, dose-escalation study in healthy older-adult volunteers to evaluate the safety, tolerability, and pharmacokinetics of a single topical dermal application of Formula C ointment. The study was conducted under FDA IND in a Phase 1 unit in the United States.
# (§3) Fifteen healthy volunteers, aged 35-70, were sequentially assigned to 1 of 3 consecutive treatment cohorts (5%, 10% or 20% Formula C ointment, respectively). Five subjects were randomized in a double-blind fashion in each dose cohort: 4 subjects received active Formula C ointment and 1 received matched placebo (0% Formula C; vehicle control). The study ointment (250 mg) was applied once to a 25 centimeter squared area of skin on the forehead of each volunteer.
# Colon CXF 243 = experiment: Colony forming assay (CFA), CXF 243; format: cell-based, human; details: PDX/CFA
# Protocol: as §1
# [9] = Phase 1a single topical application, safety and tolerability; format: in vivo, human; details: healthy volunteers
# Protocol: as §2, §3
structure (smiles),measurement,setting,value
CC/C=C\CC1C(=O)CCC1CC(=O)Oc1cccc2cccnc12 (centres unmarked) [Formula C],IC50,Pancreas PAXF 736,1740 nM
same,IC50,Lung (SCLC) LXFS NCI-H82,1770 nM
same,IC50,[1],2340 nM
same,IC50,[2],237 nM
same,IC50,[3],835 nM
same,IC50,[4],1700 nM
same,IC50,[5],2280 nM
same,IC50,[6],5570 nM
same,IC50,[7],3370 nM
same,systemic exposure of VDA-1102 or its major metabolite,[8],No systemic exposure
same,IC50,Colon CXF 243,1760 nM
same,"clinically significant changes at application sites, vital signs, physical examinations, clinical laboratory results, ECGs, Holter monitors",[9]; single topical application,No clinically significant changes
same,severity and course of adverse events,[9]; single topical application,"mild, short-lived and reversible"
same,serious adverse events,"[9]; single topical application of 250 mg 5%, 10% or 20% ointment to 25 cm2 forehead",No serious adverse events
